This passage reports IC50 results from ChEMBL document CHEMBL3886519, “Pyrazolo[1,5a]pyrimidine derivatives as IRAK4 modulators” (2016).

Molecules are shown by their SMILES.

The first assay deals with Tyrosine-protein kinase SYK (Homo sapiens, UniProt P43405). The experiment in a line: In vitro SYK Kinase Assay: SYK activity is measured by phosphorylation of a peptide substrate (Biotin-[…]) with [gamma-33P] ATP. The enzyme reaction was conducted at 20 uM ATP with 0.05 uCi [gamma-33P]ATP (2 uCi for 40 ul assay) and 10 uM peptide substrate at final volume of 40 ul in buffer containing 50 mM Hepes, pH 7.2, 1 mM dithiothreitol, 10 mM MgCl2, 100 uM Na3VO4, 0.1% BSA and 10% DMSO. The enzyme assay was carried out with human full length SYK in the presence or absence of ten compound concentrations. SYK and compound were pre-incubated for 10 minutes. Then, the enzymatic reaction was initiated by addition of ATP and peptide substrate. The reaction mixture was incubated at room temperature for 30 minutes. At the end of incubation, the reaction was terminated by transferring 25 ul of the reaction mixture to 100 ul of 10% streptavidin slurry containing 100 mM EDTA. The reaction product was captured on the affinity resin and sequentially washed on a filtration plate (Millipore, MABVNOB50) with 2M NaCl, 2M M NaCl in 1% phosphoric acid and water to remove free radio nucleotide. Then the incorporation of 33P into peptide substrate was quantified on a microplate scintillation counter.
In general, IC50 refers to the concentration at which inhibition is half-maximal. On to `COc1cc2ncccc2cc1NC(=O)c1csc2cncnc12`, for which the IC50 was found to be 622 nM.

Another assay has as its target T1, Interleukin-1 receptor-associated kinase 4 (Homo sapiens, UniProt Q9NWZ3).
T1 sequence (Q9NWZ3 whole entry): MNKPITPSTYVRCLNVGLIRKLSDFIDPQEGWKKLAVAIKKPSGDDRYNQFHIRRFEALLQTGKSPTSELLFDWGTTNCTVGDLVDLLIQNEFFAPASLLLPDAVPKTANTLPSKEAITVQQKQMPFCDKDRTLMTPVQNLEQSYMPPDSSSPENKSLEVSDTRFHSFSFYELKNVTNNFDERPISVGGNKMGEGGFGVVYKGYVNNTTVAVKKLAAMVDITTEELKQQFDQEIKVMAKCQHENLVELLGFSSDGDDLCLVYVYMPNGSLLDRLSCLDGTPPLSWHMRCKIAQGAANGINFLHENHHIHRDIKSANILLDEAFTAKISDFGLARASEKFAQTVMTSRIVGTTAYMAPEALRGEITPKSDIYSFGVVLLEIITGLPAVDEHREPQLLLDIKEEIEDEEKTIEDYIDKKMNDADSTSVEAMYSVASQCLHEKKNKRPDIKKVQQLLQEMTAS
Briefly: (§1) In vitro IRAK-1 and IRAK-4 Assay: Purified recombinant IRAK-4 protein was incubated with 250 uM synthetic peptide([…]) in 30 ul of kinase buffer including (20 mM MOPS pH7.2, 25 mM beta glycerol phosphate, 5 mM EGTA, 1 mM sodium orthovanadate, 1 mM DTT, 50 uM ATP, 20 mM MgCl2, 10 uCi gamma-33P, 0.1% BSA) for the indicated time. For purified recombinant IRAK-1 protein kinase assay, 50 uM ATP was used. A 25 ul aliquot of the reaction mixture was transferred on to p81 phosphocellulose squares (Upstate Biotechnology, Lake Placid, N.Y.). The assay squares were washed three times with 0.75% phosphoric acid and once with acetone. Enzyme activity was measured by determining the bound radioactivity by liquid scintillation counting.
For `CC(O)C1CCN(c2ccc(Cl)cc2NC(=O)c2cnn3cccnc23)CC1` (stereo not given), the IC50 came to 5 nM.

On to `COc1cc2ncccc2cc1NC(=O)c1cnn2cc(O)cnc12`, for which the IC50 came to 9 nM.

For `COc1cc2ncccc2cc1NC(=O)c1csc2cncnc12`, the IC50 was 18 nM.

Turning to `O=C(Nc1cc(Cl)ccc1OC1CCC(O)CC1)c1cnn2cc(O)cnc12` (stereo not given), the IC50 is 23 nM.

For `O=C(Nc1cc2cccnc2cc1N1CCCCC1)c1csc2cncnc12`, the IC50 came to 12 nM.

For the compound `COc1cc2nc(NCCO)ccc2cc1NC(=O)c1csc2cncnc12`, the IC50 turned out to be 10 nM.

Consider `O=C(Nc1cc2cccnc2cc1O[C@H]1CC[C@@H](O)CC1)c1csc2cncnc12`, for which the IC50 was 7 nM.

In the case of `O=C(Nc1cc2cccnc2cc1OC1CCC(O)CC1)c1csc2cncnc12` (stereo not given), the IC50 amounted to 24 nM.

The target of the next assay is Interleukin-1 receptor-associated kinase 1 (Homo sapiens, UniProt P51617). Described as §1.
Sequence of Interleukin-1 receptor-associated kinase 1 (P51617 whole entry): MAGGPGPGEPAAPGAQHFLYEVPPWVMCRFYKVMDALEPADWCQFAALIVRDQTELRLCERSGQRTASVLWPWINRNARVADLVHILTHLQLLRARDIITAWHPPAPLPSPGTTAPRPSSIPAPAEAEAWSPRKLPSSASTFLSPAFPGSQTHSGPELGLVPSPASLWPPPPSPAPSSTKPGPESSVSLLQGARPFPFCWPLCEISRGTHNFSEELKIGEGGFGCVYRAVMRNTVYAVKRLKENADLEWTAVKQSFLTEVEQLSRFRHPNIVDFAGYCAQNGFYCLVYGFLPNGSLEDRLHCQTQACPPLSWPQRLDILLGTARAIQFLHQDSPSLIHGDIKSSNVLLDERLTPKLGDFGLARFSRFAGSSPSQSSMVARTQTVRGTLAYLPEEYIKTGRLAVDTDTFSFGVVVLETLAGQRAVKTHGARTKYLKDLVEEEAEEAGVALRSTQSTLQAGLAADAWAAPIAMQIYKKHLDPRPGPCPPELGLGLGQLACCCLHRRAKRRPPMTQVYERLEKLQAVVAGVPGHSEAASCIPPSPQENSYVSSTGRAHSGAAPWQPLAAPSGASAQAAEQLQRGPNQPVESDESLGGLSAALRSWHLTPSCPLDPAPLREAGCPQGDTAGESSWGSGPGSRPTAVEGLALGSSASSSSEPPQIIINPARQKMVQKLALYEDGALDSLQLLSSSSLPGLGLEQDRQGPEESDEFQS
Take `CC(O)C1CCN(c2ccc(Cl)cc2NC(=O)c2cnn3cccnc23)CC1` (stereo not given): the IC50 stood at 970 nM.

With `COc1cc2ncccc2cc1NC(=O)c1cnn2cc(O)cnc12`, the IC50 is 200 nM.

Take `O=C(Nc1cc(Cl)ccc1OC1CCC(O)CC1)c1cnn2cc(O)cnc12` (stereo not given): the IC50 was 163 nM.

Consider `COc1cc2nc(NCCO)ccc2cc1NC(=O)c1csc2cncnc12`, for which the IC50 is 200 nM.

Turning to `O=C(Nc1cc2cccnc2cc1O[C@H]1CC[C@@H](O)CC1)c1csc2cncnc12`, the IC50 came out at 70 nM.

On to `O=C(Nc1cc2cccnc2cc1OC1CCC(O)CC1)c1csc2cncnc12` (stereo not given), for which the IC50 was 123 nM.
